Assay results published in patent US11136291B2, “Antifungal compounds and uses thereof” (Dana-Farber Cancer Institute, Inc., priority 2016, dated 2021).
Converted amounts (≈) assume the structure as drawn. “Also recorded” adds a separate entry of the source.

Experiments:
[1] = test system: rhodamine 6G efflux in C. glabrata; assay: Rhodamine 6G efflux assay; type: cell-based, Candida glabrata; conditions: PDR1 wild-type or gain-of-function strains, iKIX1 pre-treatment vs vehicle
Protocol: Cells were treated with vehicle or iKIX1 and grown with shaking for 16 hours. […] Untreated cells were placed on ice and not treated with ketoconazole or rhodamine 6G. All cells were placed on ice and washed twice with cold YP containing either 5 μM ketoconazole+vehicle (DMSO) or 5 μM ketoconazole+30 μM iKIX1 to remove excess rhodamine 6G. Cells were resuspended in room temperature YP with either 5 μM ketoconazole+vehicle (DMSO) or 5 μM ketoconazole+30 μM iKIX1 and 100 μL was transferred to a 96-well plate. An Envision 2103 Multilabel plate reader was used to assess RFU (relative fluorescence units; excitation 485, emission 535) over 60 minutes at 7.5 minute intervals. Efflux rate was calculated as RFU per second with 7.5 minute windows. Experiments were performed in triplicate, with duplicate readings for each sample; error bars indicate s.d.

Candida albicans SC5314 = assay: Broth dilution MIC
Protocol: (§2) Antifungal susceptibility testing was carried out using broth dilution assays which examined effects of two-fold dilutions of compounds on cellular growth. The minimum inhibitory concentration (MIC) was defined as the drug concentration at which the optical density was equal to or decreased more than 50% from that of the drug-free culture.

[2] = test system: CgCDR1 transcription (CgPdr1 target); assay: Transcription assay, quantitative real-time PCR of CgPdr1 target genes; type: cell-based, Candida glabrata
[3] = test system: C. glabrata CgPDR1 wild-type and gain-of-function mutant strains; assay: Spot plating on gradient plates with azole; type: cell-based, Candida glabrata
Candida krusei DSY471 = assay: Broth dilution MIC; conditions: Pichia kudriavzevii, ATCC6258
Protocol: as §2

[4] = test system: Gal11/Med15 recruitment to Pdr1-regulated target genes; assay: Chromatin immunoprecipitation (ChIP) assay; type: cell-based, Saccharomyces cerevisiae
Protocol: (§1) ChIP was performed according to standard procedures (see. e.g., McConnell A D, Gelbart M E, Tsukiyama T. Histone fold protein Dls1p is required for Isw2-dependent chromatin remodeling in vivo. Mol Cell Biol. 2004; 24(7):2605-13. PMCID: 371119). Briefly, cells were grown to saturation then washed 2 times with sterilized Milli-Q (Millipore) water, resuspended to an OD600 of 0.8 in YP (1% yeast extract, 2% bacto peptone) and then grown for 6 hours at 30° C. with shaking in the presence of DMSO (vehicle) or iKIX1. Cultures were induced with ketoconazole to a final concentration of 40 μM and harvested at the times indicated. 2 mL of culture was harvested at 0′ and 15′ for matched transcription samples; RNA was prepared as described below. Cells were fixed with 1% formaldehyde (final) for 15 minutes with swirling and then quenched with 125 mM glycine (final) for 5 min. with swirling. Cells were pelleted, washed with TBS+125 mM glycine and then TBS. Cells were lysed in buffer containing 50 mM HEPES, pH 7.5, 140 mM NaCl, 1% Triton X-100, 0.1% sodium deoxycholate, 1 mM EDTA and protease inhibitors and 0.5 mm glass beads. Glass beads were removed by centrifugation before cell lysate was sonicated to obtain 150 to 400 base pair fragments. […]

[5] = test system: C. glabrata adherence to CHO-Lec2 cells; assay: Yeast adherence to epithelial CHO-Lec2 cells; conditions: PDR1^L280F mutant; 30 μM iKIX1 or 40 μM ketoconazole
[6] = test system: ScPdr1 target genes (ScPDR5, ScSNQ2); assay: Transcription assay, quantitative real-time PCR of ScPdr1 target genes; type: cell-based, Saccharomyces cerevisiae; conditions: ketoconazole induced
Protocol: as §1, with “beads.” for “beads. Glass beads were removed by centrifugation before cell lysate was sonicated to obtain 150 to 400 base pair fragments.”
For harvest and preparation of RNA. cells equivalent to an OD600 of 0.4 were centrifuged at 4,000 rpm for 4 minutes and then resuspended in 700 μL Trizol. […] Quantitative real-time PCR reactions were run and analyzed on a Roche LightCycler 480 system. […]

Candida glabrata DSY565 = assay: Broth dilution MIC; conditions: Nakaseomyces glabratus
Protocol: as §2

[7] = test system: C. glabrata PDR1 wild-type or PDR1^L280F strains; assay: Galleria mellonella survival assay; type: in vivo
[8] = In vitro stability (plasma, microsomes) and in vivo mouse pharmacokinetics
Protocol: Microsome stability assays were performed as previously described (see, e.g., Choi J Y, Calvet C M, Gunatilleke S S, Ruiz C, Cameron M D, McKerrow J H, et al. Rational development of 4-aminopyridyl-based inhibitors targeting Trypanosoma cruzi CYP51 as anti-chagas agents. J Med Chem. 56(19):7651-68. PMCID: 3864028); for plasma stability, 100% freshly drawn plasma in LiHeparin was used with similar sampling and sample preparation with no addition of microsomes, buffer or NADPH.
Male Swiss albino mice were dosed via tail vein (IV; intravenous, solution in 5% NMP and 10% solutol in saline, dose: 2 mg/kg) or via oral gavage (PO; suspensions in 0.5% w/v Na CMC with 0.1% v/v Tween-80 in water). Blood and brain samples were collected at 0, 0.083 (for IV only), 0.25, 0.5, 1, 2, 4, 6 (for PO only), 8, 12, and 24 hours for the IV and PO groups. The blood samples were collected from sets of three mice at each time point. Plasma samples were separated by centrifugation and stored below −70° C. until analysis. Brain samples were homogenized using ice-cold phosphate buffer saline (pH 7.4) and homogenates were stored below −70° C. until analysis. All samples were processed and analyzed by […] (LLOQ, 2.03 ng/mL for plasma and 10.16 ng/mL for brain). Pharmacokinetic parameters were calculated using the noncompartmental analysis tool of Phoenix WinNonlin (version 5.3).

SMILES: N#CCC(=O)NNC(=S)Nc1ccc(Cl)c(Cl)c1 [iKIX1, 2-(2-Cyanoacetyl)-N-(3,4-dichlorophenyl)hydrazinecarbothioamide]
- maximum rhodamine 6G efflux rates [1]: Maximum efflux rates were significantly decreased
- MIC (Candida albicans SC5314): 12.5 µM (≈ 3.79 µg/mL)
- ketoconazole-induced CgPdr1 target gene (CgCDR1) transcription (in words) ([2]; CgPDR1 wild-type strain (SFY114), pre-treatment then 40 μM ketoconazole): reduced target gene induction in a durable and concentration-dependent manner
- Pdr1-target gene induction ([2]; iKIX1 alone, no azole): did not significantly affect Pdr1-target gene induction
- azole-induced transcription of CgPdr1 target genes ([2]; isogenic strains with gain-of-function CgPDR1 mutations): reduced azole-induced transcription of CgPdr1 target genes (e.g., CgCDR1) in a concentration-dependent manner in all strains tested
- azole sensitivity of growth on gradient plates ([3]; CgPDR1 gain-of-function mutant strains, compound gradient with fluconazole or ketoconazole): restored azole-sensitivity to PDR1 gain-of-function mutant strains in a concentration-dependent manner
- growth inhibition on gradient plates ([3]; CgPDR1 wild-type strains, iKIX1 with azole vs single agents): increased growth inhibition
- MIC (Candida krusei DSY471): 6.25 µM (≈ 1.89 µg/mL)
- constitutive occupancy of Pdr1 at Pdr1-regulated target genes ([4]; 20 μM iKIX1): did not impede the constitutive occupancy of Pdr1
- ketoconazole-induced recruitment of Gal11/Med15 to promoters of PDR5 and SNQ2 ([4]; iKIX1 pre-treatment): ketoconazole-induced recruitment of Gal11/Med15 was abrogated
- relative adherence to epithelial cells [5]: reduce adherence; also recorded: reduced adherence to levels similar to a PDR1 wild-type strain
- azole-induced transcription of ScPdr1 target genes [6]: strongly inhibited azole-induced transcription of ScPdr1 target genes
- MIC (Candida glabrata DSY565): 12.5 µM (≈ 3.79 µg/mL)
- survival of G. mellonella larvae ([7]; […], fluconazole-iKIX1 combination): no significant alterations in survival
- survival of G. mellonella larvae ([7]; […], single agent (fluconazole 50 mg/kg or iKIX1 25 mg/kg) vs vehicle): did not significantly increase survival
- survival of G. mellonella larvae ([7]; in vivo): significantly increased survival
- in vitro stability and in vivo mouse pharmacokinetics (in words) [8]: favorable drug-like properties and in vivo exposure
